From US20230040770A1, “HETEROCYCLIC COMPOUND AND USE THEREOF” (TAKEDA PHARMACEUTICAL COMPANY LIMITED, priority 2019, published 2023)

These molecules were tested against T1, human orexin type 2 receptor (Homo sapiens, UniProt O43614) (assay: Measurement of orexin type 2 receptor agonist activity (calcium indicator fluorescence, CHO cells forcibly expressing human OX2 receptor)). Settings: compound at 3 μM; 0% = DMSO, 100% = orexin A (human) 10 nM.
T1 construct: expressed in transfected cells
T1 sequence (O43614 1-444): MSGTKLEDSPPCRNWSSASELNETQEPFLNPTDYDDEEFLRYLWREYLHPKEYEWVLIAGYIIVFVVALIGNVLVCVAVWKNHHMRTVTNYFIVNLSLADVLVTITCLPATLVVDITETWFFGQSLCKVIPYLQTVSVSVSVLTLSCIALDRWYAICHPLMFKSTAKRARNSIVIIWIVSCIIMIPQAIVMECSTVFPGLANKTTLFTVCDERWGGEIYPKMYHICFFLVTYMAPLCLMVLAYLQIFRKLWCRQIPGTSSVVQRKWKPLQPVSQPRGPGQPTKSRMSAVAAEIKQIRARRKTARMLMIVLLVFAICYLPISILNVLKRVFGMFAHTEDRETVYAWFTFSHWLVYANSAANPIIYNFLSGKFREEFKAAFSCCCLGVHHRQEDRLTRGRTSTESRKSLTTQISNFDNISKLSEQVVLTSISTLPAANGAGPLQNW
Format: cell-based
Outline: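 Agonist response normalised between vehicle (0%) and orexin A at 10 nM final (100%), from kinetic Fluo-4 calcium signals recorded for about 2 min after compound addition. Cells: stable human OX2R CHO clone, dye-loaded 30 min at 37 °C plus 30 min at room temperature.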

**Q.** With CS(=O)(=O)N[C@@H]1[C@H](Cc2cccc(-c3ccccc3)c2F)N(C(=O)C2CC(F)C2)CC1(F)F (stereo partly drawn) [Example 441, N-[(2S,3R)-4,4-difluoro-2-[(2-fluoro[1,1′-biphenyl]-3-yl)methyl]-1-(3-fluorocyclobutane-1-carbonyl)pyrrolidin-3-yl]methanesulfonamide] as the molecule, how does the “OX2R agonist activity (3 μM, %)” value read?
**A.** 93%

**Q.** With Cc1cccc(-c2cccc(C[C@H]3[C@@H](NS(=O)(=O)N(C)C)C(F)(F)CN3C(=O)N3CCC3)c2F)c1F [Example 545, N′-{(2S,3R)-1-(azetidine-1-carbonyl)-2-[(2,2′-difluoro-3′-methyl[1,1′-biphenyl]-3-yl)methyl]-4,4-difluoropyrrolidin-3-yl}-N,N-dimethylsulfuric diamide] as the molecule, how does the “OX2R agonist activity (3 μM, %)” value read?
**A.** 93%

**Q.** For O=C(C1CCO1)N1C[C@H](F)[C@H](NS(=O)(=O)C2CC2)[C@@H]1Cc1cccc(-c2cccc(Cl)c2)c1F (stereo partly drawn) [Example 485, N-[(2S,3R,4S)-2-[(3′-chloro-2-fluoro[1,1′-biphenyl]-3-yl)methyl]-4-fluoro-1-(oxetane-2-carbonyl)pyrrolidin-3-yl]cyclopropanesulfonamide], which “OX2R agonist activity (3 μM, %)” value is on record?
**A.** 93%

**Q.** Which “OX2R agonist activity (3 μM, %)” value does the source give for CCS(=O)(=O)N[C@H]1[C@@H](F)CN(C(=O)C23CC(C2)C3)[C@H]1Cc1cccc(-c2cc(F)cc(F)c2)c1F [Example 365, N-{(2S,3R,4S)-1-(bicyclo[1.1.1]pentane-1-carbonyl)-4-fluoro-2-[(2,3′,5′-trifluoro[1,1′-biphenyl]-3-yl)methyl]pyrrolidin-3-yl}ethanesulfonamide] here?
**A.** 93%

**Q.** O=C(C1CCO1)N1C[C@H](F)[C@H](NS(=O)(=O)C2CC2)[C@@H]1Cc1cccc(-c2cc(F)ccc2F)c1F (stereo partly drawn) [Example 495, N-{(2S,3R,4S)-4-fluoro-1-(oxetane-2-carbonyl)-2-[(2,2′,5′-trifluoro[1,1′-biphenyl]-3-yl)methyl]pyrrolidin-3-yl}cyclopropanesulfonamide] was tested. Which “OX2R agonist activity (3 μM, %)” value did it give?
**A.** 92%

**Q.** CCS(=O)(=O)N[C@H]1[C@@H](F)CN(C(=O)C2CCO2)[C@H]1Cc1cccc(-c2cccc(C(F)F)c2)c1F (stereo partly drawn) [Example 535, N-[(2S,3R,4S)-2-{[3′-(difluoromethyl)-2-fluoro[1,1′-biphenyl]-3-yl]methyl}-4-fluoro-1-(oxetane-2-carbonyl)pyrrolidin-3-yl]ethanesulfonamide] was tested. Which “OX2R agonist activity (3 μM, %)” value did it give?
**A.** 102%

**Q.** Which “OX2R agonist activity (3 μM, %)” value does the source give for CCS(=O)(=O)N[C@@H]1[C@H](Cc2cccc(-c3ccccc3)c2F)N(C(=O)C(C)C)CC1(F)F [Example 106, N-[(2S,3R)-4,4-difluoro-2-[(2-fluoro[1,1′-biphenyl]-3-yl)methyl]-1-(2-methylpropanoyl)pyrrolidin-3-yl]ethanesulfonamide] here?
**A.** 97%

**Q.** How did the “OX2R agonist activity (3 μM, %)” value turn out when CCS(=O)(=O)N[C@@H]1[C@H](Cc2cccc(-c3cccc(C(F)F)c3)c2F)N(C(=O)C2CC2)CC1(F)F [Example 508, N-[(2S,3R)-1-(cyclopropanecarbonyl)-2-{[3′-(difluoromethyl)-2-fluoro[1,1′-biphenyl]-3-yl]methyl}-4,4-difluoropyrrolidin-3-yl]ethanesulfonamide] was run?
**A.** 96%

**Q.** How did the “OX2R agonist activity (3 μM, %)” value turn out when O=C(C1CCO1)N1C[C@H](F)[C@H](NS(=O)(=O)C2CC2)[C@@H]1Cc1cccc(-c2cc(F)ccc2F)c1F (stereo partly drawn) [Example 481, N-{(2S,3R,4S)-4-fluoro-1-(oxetane-2-carbonyl)-2-[(2,2′,5′-trifluoro[1,1′-biphenyl]-3-yl)methyl]pyrrolidin-3-yl}cyclopropanesulfonamide] was run?
**A.** 104%

**Q.** Which “OX2R agonist activity (3 μM, %)” value does the source give for CC(C)(O)C(=O)N1C[C@H](F)[C@H](NS(=O)(=O)C2CC2)[C@@H]1Cc1cccc(-c2cc(F)cc(F)c2)c1F [Example 370, N-{(2S,3R,4S)-4-fluoro-1-(2-hydroxy-2-methylpropanoyl)-2-[(2,3′,5′-trifluoro[1,1′-biphenyl]-3-yl)methyl]pyrrolidin-3-yl}cyclopropanesulfonamide] here?
**A.** 91%

**Q.** O=C(C1CCO1)N1CC(F)(F)[C@H](NS(=O)(=O)C2CC2)[C@@H]1Cc1cccc(-c2ccccc2)c1F (stereo partly drawn) [Example 124, N-[(2S,3R)-4,4-difluoro-2-[(2-fluoro[1,1′-biphenyl]-3-yl)methyl]-1-(oxetane-2-carbonyl)pyrrolidin-3-yl]cyclopropanesulfonamide] was tested. Which “OX2R agonist activity (3 μM, %)” value did it give?
**A.** 89%

**Q.** With CCS(=O)(=O)N[C@H]1[C@@H](F)CN(C(=O)[C@H]2CCCO2)[C@H]1Cc1cccc(-c2cccc(F)c2F)c1F [Example 415, N-{(2S,3R,4S)-4-fluoro-1-[(2R)-oxolane-2-carbonyl]-2-[(2,2′,3′-trifluoro[1,1′-biphenyl]-3-yl)methyl]pyrrolidin-3-yl}ethanesulfonamide] as the molecule, how does the “OX2R agonist activity (3 μM, %)” value read?
**A.** 107%

**Q.** With CCS(=O)(=O)N[C@H]1[C@@H](F)CN(C(=O)N(C)C)[C@H]1Cc1cccc(-c2cccc(Cl)c2)c1F [Example 332, (2S,3R,4S)-2-[(3′-chloro-2-fluoro[1,1′-biphenyl]-3-yl)methyl]-3-[(ethanesulfonyl)amino]-4-fluoro-N,N-dimethylpyrrolidine-1-carboxamide] as the molecule, how does the “OX2R agonist activity (3 μM, %)” value read?
**A.** 95%

**Q.** With CCS(=O)(=O)N[C@H]1[C@@H](F)CN(C(=O)N(C)C)[C@H]1Cc1cccc(-c2cc(F)cc(F)c2)c1F [Example 329, (2S,3R,4S)-3-[(ethanesulfonyl)amino]-4-fluoro-N,N-dimethyl-2-[(2,3′,5′-trifluoro[1,1′-biphenyl]-3-yl)methyl]pyrrolidine-1-carboxamide] as the molecule, how does the “OX2R agonist activity (3 μM, %)” value read?
**A.** 88%

**Q.** How did the “OX2R agonist activity (3 μM, %)” value turn out when CCS(=O)(=O)N[C@@H]1[C@H](Cc2cccc(-c3cccc(F)c3)c2F)N(C(=O)C(C)(C)O)CC1(F)F [Example 8, N-[(2S,3R)-2-[(2,3′-difluoro[1,1′-biphenyl]-3-yl)methyl]-4,4-difluoro-1-(2-hydroxy-2-methylpropanoyl)pyrrolidin-3-yl]ethanesulfonamide] was run?
**A.** 99%

**Q.** How did the “OX2R agonist activity (3 μM, %)” value turn out when O=C(C1CCO1)N1C[C@H](F)[C@H](NS(=O)(=O)C2CC2)[C@@H]1Cc1cccc(-c2cccc(Cl)c2)c1F (stereo partly drawn) [Example 497, N-[(2S,3R,4S)-2-[(3′-chloro-2-fluoro[1,1′-biphenyl]-3-yl)methyl]-4-fluoro-1-(oxetane-2-carbonyl)pyrrolidin-3-yl]cyclopropanesulfonamide] was run?
**A.** 91%

**Q.** Which “OX2R agonist activity (3 μM, %)” value does the source give for CCS(=O)(=O)N[C@@H]1[C@H](Cc2cccc(-c3cccc(Cl)c3F)c2F)N(C(=O)C2CC2)CC1(F)F [Example 249, N-[(2S,3R)-2-[(3′-chloro-2,2′-difluoro[1,1′-biphenyl]-3-yl)methyl]-1-(cyclopropanecarbonyl)-4,4-difluoropyrrolidin-3-yl]ethanesulfonamide] here?
**A.** 90%

**Q.** How did the “OX2R agonist activity (3 μM, %)” value turn out when CCCC(=O)N1CC(F)(F)[C@H](NS(=O)(=O)CC)[C@@H]1Cc1cccc(-c2cccc(F)c2)c1F [Example 257, N-{(2S,3R)-1-butanoyl-2-[(2,3′-difluoro[1,1′-biphenyl]-3-yl)methyl]-4,4-difluoropyrrolidin-3-yl}ethanesulfonamide] was run?
**A.** 96%

**Q.** With CCS(=O)(=O)N[C@@H]1[C@H](Cc2cccc(-c3ccccc3)c2F)N(C(=O)[C@H]2C[C@H](F)C2)CC1(F)F [Example 378, N-[(2S,3R)-4,4-difluoro-2-[(2-fluoro[1,1′-biphenyl]-3-yl)methyl]-1-((1r,3S)-3-fluorocyclobutane-1-carbonyl)pyrrolidin-3-yl]ethanesulfonamide] as the molecule, how does the “OX2R agonist activity (3 μM, %)” value read?
**A.** 106%
